Measurements published in US10597382B2, “Tetrazole containing apoptosis signal-regulating kinase 1 inhibitors and methods of use thereof” (ENANTA PHARMACEUTICALS, INC., priority 2017, dated 2020).

Target: ASK1 kinase (Homo sapiens (Human), UniProt Q99683)
Experiment: HTRF KinEASE assay of ASK1 kinase activity inhibition
Format: biochemical
Conditions: HTRF KinEASE-STK TR-FRET; 5 nM ASK1, 1 uM STK3 peptide substrate, 100 uM ATP, 3 hours
Procedure: • The ability (IC50) of compounds to inhibit ASK1 kinase activity was determined by HTRF® KinEASE™ Assay System
ASK1 kinase was from Thermofisher (Catalogue # PV4011), ATP was from Sigma (Catalogue # A7699), HTRF® KinEASE™ Assay System was obtained from Cisbio (Bedford, Mass.). ½ Area plate was from Perkin Elmer (Catalogue #6005560). HTRF® KinEASE™-STK is a generic method for measuring serine/threonine kinase activities using time-resolved fluorescence resonance energy transfer (TR-FRET) immunoassay. The IC50 value for each compound was determined in the presence of compound (various concentration from 0 to 10 uM) and a fixed amount of ATP, peptide substrates. Test compound, 1 uM STK3 peptide substrate, 5 nM of ASK1 kinase are incubated with kinase reaction buffer, containing 50 mM HEPES pH 7.5, 0.01% BRIJ-35, 10 mM MgCl2, and 1 mM EGTA for 30 minutes, then 100 uM ATP is added to start kinase reaction and incubated for 3 hours. The STK3-antibody labeled with Eu^3+-Cryptate and 125 nM streptavidin-XL665 are mixed in a single addition with stop reagents provided by the Cisbio kit used to stop the kinase reaction. Fluorescence is detected using Envision Multilabeled 2014 reader from PerkinElmer. The Fluorescence is measured at 615 nm (Cryptate) and 665 nm (XL665) and a ratio of 665 nm/615 nm is calculated for each well. The resulting TR-FRET is proportional to the phosphorylation level. Staurosporine was used as the positive control. IC50 was determined by Xlfit 5.3.
By using above method, the inhibition of ASK1 was tested for the compound of formula (I). IC50 ranges are as follows: A<1 nM; 1 nM<[…]B<10 nM; 10 nM<C<100 nM; 100 nM<D<1 μM; E>1 μM.

ASK1 kinase, sequence (Q99683 whole entry): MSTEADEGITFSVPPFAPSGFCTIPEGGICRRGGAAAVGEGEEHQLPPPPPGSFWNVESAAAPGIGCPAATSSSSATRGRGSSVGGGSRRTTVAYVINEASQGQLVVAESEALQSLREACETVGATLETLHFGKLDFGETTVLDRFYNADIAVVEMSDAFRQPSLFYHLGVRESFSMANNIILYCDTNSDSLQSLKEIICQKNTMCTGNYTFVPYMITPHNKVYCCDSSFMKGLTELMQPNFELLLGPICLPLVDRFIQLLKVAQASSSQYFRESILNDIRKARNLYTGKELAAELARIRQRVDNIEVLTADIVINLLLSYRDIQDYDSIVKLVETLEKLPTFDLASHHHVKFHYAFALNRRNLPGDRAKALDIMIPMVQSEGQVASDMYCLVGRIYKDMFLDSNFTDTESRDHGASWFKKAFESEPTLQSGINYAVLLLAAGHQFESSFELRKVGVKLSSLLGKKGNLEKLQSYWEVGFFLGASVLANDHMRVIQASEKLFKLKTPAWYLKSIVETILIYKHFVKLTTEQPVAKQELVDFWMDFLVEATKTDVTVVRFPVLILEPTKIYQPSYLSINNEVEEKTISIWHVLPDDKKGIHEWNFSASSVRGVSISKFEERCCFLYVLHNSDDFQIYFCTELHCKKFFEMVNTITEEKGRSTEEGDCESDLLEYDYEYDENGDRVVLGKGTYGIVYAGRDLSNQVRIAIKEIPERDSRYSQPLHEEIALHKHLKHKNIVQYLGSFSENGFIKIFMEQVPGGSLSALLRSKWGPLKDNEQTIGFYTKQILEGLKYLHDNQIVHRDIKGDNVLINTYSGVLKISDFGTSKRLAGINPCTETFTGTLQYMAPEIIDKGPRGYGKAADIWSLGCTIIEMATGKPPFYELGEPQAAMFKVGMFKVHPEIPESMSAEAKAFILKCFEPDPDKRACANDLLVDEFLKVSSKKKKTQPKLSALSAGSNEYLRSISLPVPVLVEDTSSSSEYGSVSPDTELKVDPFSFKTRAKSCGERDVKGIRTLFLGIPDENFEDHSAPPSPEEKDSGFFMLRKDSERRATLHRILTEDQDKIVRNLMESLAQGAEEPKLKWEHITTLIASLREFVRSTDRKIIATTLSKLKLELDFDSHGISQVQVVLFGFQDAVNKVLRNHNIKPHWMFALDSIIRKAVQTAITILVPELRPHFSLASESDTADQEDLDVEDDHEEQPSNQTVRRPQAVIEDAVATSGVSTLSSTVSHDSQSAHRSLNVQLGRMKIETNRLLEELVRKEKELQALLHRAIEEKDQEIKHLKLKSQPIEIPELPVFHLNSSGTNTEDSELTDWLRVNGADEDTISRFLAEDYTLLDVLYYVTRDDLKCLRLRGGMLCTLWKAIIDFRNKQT

IC50 | SMILES
100 to 1000 nM | Cc1ccncc1-c1ccc2c(c1)C(=O)N(c1cccc(-n3nnnc3C(C)C)n1)C2 [Example 12]
1 to 10 nM | Cc1cc2c(cc1OC(C)C)C(=O)N(c1cccc(-c3nnnn3[C@H](C)CO)n1)C2 [Example 14]
10 to 100 nM | CC(C)c1nnnn1-c1cccc(N2Cc3ccc(-c4cccnc4)cc3C2=O)n1 [Example 9]
100 to 1000 nM | Cc1ncccc1-c1ccc2c(c1)C(=O)N(c1cccc(-n3nnnc3C(C)C)n1)C2 [Example 11]
100 to 1000 nM | CC(C)c1nnnn1-c1cccc(N2Cc3ccc(N4CCOCC4)cc3C2=O)n1 [Example 8]
1 to 10 nM | CC(C)n1nnnc1-c1cccc(N2Cc3ccc(-c4cccnc4)cc3C2=O)n1 [Example 13]
10 to 100 nM | CC(C)n1nnnc1-c1cccc(N2Cc3ccc(-c4cncc(C5CC5)c4)cc3C2=O)n1 [Example 15]
10 to 100 nM | CC(C)n1nnnc1-c1cccc(N2Cc3ccc(-c4ccc(C5CC5)nc4)cc3C2=O)n1 [Example 16]
1 to 10 nM | CC(C)Oc1ccc2c(c1)C(=O)N(c1cccc(-c3nnnn3[C@H](C)CO)n1)C2 [Example 6, I-2-(6-(1-(1-hydroxypropan-2-yl)-1H-tetrazol-5-yl)pyridine-2-yl)-6-isopropoxyisoindolin-1-one]
10 to 100 nM | C[C@H](CO)n1nnnc1-c1cccc(N2Cc3ccc(-n4cnc(C5CC5)c4)cc3C2=O)n1 [Example 4, I-6-(4-cyclopropyl-1H-imidazol-1-yl)-2-(6-(1-(1-hydroxypropan-2-yl)-1H-tetrazol-5-yl)pyridine-2-yl)isoindolin-1-one]
100 to 1000 nM | CC(=O)OC[C@@H](C)n1nnnc1-c1cccc(N2Cc3ccc(-n4cnc(C5CC5)c4)cc3C2=O)n1 [Example 3, I-2-(5-(6-(6-(4-cyclopropyl-1H-imidazol-1-yl)-1-oxoisoindolin-2-yl)pyridine-2-yl)-1H-tetrazol-1-yl)propyl acetate]
10 to 100 nM | CC(C)n1nnnc1-c1cccc(N2Cc3ccccc3C2=O)n1 [Example 7]
10 to 100 nM | CC(C)n1nnnc1-c1cccc(N2Cc3ccc(-n4cnc(C5CC5)c4)cc3C2=O)n1 [Example 2, 6-(4-cyclopropyl-1H-imidazol-1-yl)-2-(6-(1-isopropyl-1H-tetrazol-5-yl)pyridine-2-yl)isoindolin-1-one]
> 1000 nM | CC(=O)OC[C@@H](C)n1nnnc1-c1cccc(N2Cc3ccc(OC(C)C)cc3C2=O)n1 [Example 5, I-2-(5-(6-(6-isopropoxy-1-oxoisoindolin-2-yl)pyridine-2-yl)-1H-tetrazol-1-yl)propyl acetate]
1 to 10 nM | CC(C)c1nnnn1-c1cccc(N2Cc3ccc(-n4cnc(C5CC5)c4)cc3C2=O)n1 [Example 1, 6-(4-cyclopropyl-1H-imidazol-1-yl)-2-(6-(5-isopropyl-1H-tetrazol-1-yl)pyridine-2-yl)isoindolin-1-one]
10 to 100 nM | CCN1CCN(c2ccc3c(c2)C(=O)N(c2cccc(-n4nnnc4C(C)C)n2)C3)CC1=O [Example 10]
